Data: PubChem BioAssay (NCI)
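How tested: cells in 96-well plates exposed to compound for 48 hours at five concentrations. TGI marks complete inhibition of growth.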

How the values were obtained:
Experiment in all cases: growth of human tumour cells (NCI), 48 h
786-0 renal = tested on: 786-0 renal
ACHN renal = tested on: ACHN renal
DLD-1 colon = tested on: DLD-1 colon
DMS 114 small cell lung = tested on: DMS 114 small cell lung
DMS 273 small cell lung = tested on: DMS 273 small cell lung
HL-60(TB) leukemia = tested on: HL-60(TB) leukemia
HOP-18 NSCLC = tested on: HOP-18 NSCLC
KM20L2 colon = tested on: KM20L2 colon
LXFL 529 NSCLC = tested on: LXFL 529 NSCLC
M19-MEL melanoma = tested on: M19-MEL melanoma
SNB-78 CNS = tested on: SNB-78 CNS
XF 498 CNS = tested on: XF 498 CNS

Row | Compound | TGI (786-0 renal) [µM] | TGI (ACHN renal) [µM] | TGI (DLD-1 colon) [µM] | TGI (DMS 114 small cell lung) [µM] | TGI (DMS 273 small cell lung) [µM] | TGI (HL-60(TB) leukemia) [µM] | TGI (HOP-18 NSCLC) [µM] | TGI (KM20L2 colon) [µM] | TGI (LXFL 529 NSCLC) [µM] | TGI (M19-MEL melanoma) [µM] | TGI (SNB-78 CNS) [µM] | TGI (XF 498 CNS) [µM]
1 | O=C(c1ccco1)N(C(=S)N1CCN(c2ccccc2)CC1)C1CCCCC1 | > 100 | > 100 | > 100 | > 100 | > 100 | > 100 | > 100 | > 100 | > 100 | > 100 | > 100 | 
2 | COc1cc2c(oc(=O)c3c4occc4cc(OC)c23)c2cccc(OCc3ccccc3)c12 | > 100 | > 100 | > 100 | > 100 | > 100 | > 100 | > 100 | > 100 | > 100 | > 100 | > 100 | > 100
3 | CCOC(=O)C(C)Sc1nnc(COc2ccc(Cl)cc2)n1-c1ccccc1 (stereo unspecified) | 71.2 | 31.6 | 35.1 |  | 29.9 | 39.7 | > 100 | 33 | 30.4 | 34.9 | 95.2 | 
4 | CC(C)(C)C1CCC2c3c([nH]c4ncccc34)C3C(=O)N(c4ccccc4)C(=O)C3C2C1 (stereo unspecified) | > 100 | > 100 | > 100 | > 100 | > 100 | > 100 | > 100 | > 100 | > 100 | > 100 | > 100 | > 100
5 | [N-]=[N+]=NC1(c2ccccc2)C(=O)C(Cl)=C(c2ccccc2)N(c2ccccc2)C1=O (stereo unspecified) | > 100 | > 100 | > 100 | > 100 | > 100 | > 100 | > 100 | > 100 | > 100 | > 100 | > 100 | 
